Legend:
Splenocyte [1] = assay: Immunosuppressive activity in BALB/c mouse Splenocyte assessed as inhibition of LPS induced B-cell proliferation by [3H]-thymidine incorporation based beta scintillation counter analysis; type: functional
[2] = Selectivity index, ratio of CC50 for BALB/c mouse Splenocyte to IC50 for Immunosuppressive activity in BALB/c mouse Splenocyte assessed as inhibition of LPS-induced B-cell proliferation; type: toxicity; details: splenocytes, read-out: Ratio CC50/IC50
Splenocyte [3] = assay: Immunosuppressive activity in BALB/c mouse Splenocyte assessed as inhibition of concanavalin A induced T-cell proliferation by [3H]-thymidine incorporation based beta scintillation counter analysis; type: functional
[4] = Cytotoxicity in BALB/c mouse Splenocyte assessed as reduction in cell viability incubated for 48 hrs by CCK-8 assay; type: toxicity, cell-based; details: splenocytes
[5] = Selectivity index, ratio of CC50 for BALB/c mouse Splenocyte to IC50 for Immunosuppressive activity in BALB/c mouse Splenocyte assessed as inhibition of concanavalin A-induced T-cell proliferation; type: toxicity; details: splenocytes, read-out: Ratio CC50/IC50

SMILES | IC50 (Splenocyte [1]) [µM] | selectivity ratio [2] | IC50 (Splenocyte [3]) [µM] | CC50 at 48 h [4] [µM] | selectivity ratio [5]
C=C[C@H]1[C@H](O[C@@H]2O[C@H](CO)[C@@H](O)[C@H](O)[C@H]2O)OC=C(C(=O)OC)[C@H]1CC(=O)c1[nH]c2ccccc2c1CC(=O)NC | 47.4 | 3.59 | > 200 | 170 | < 0.85
C=C[C@H]1[C@H](O[C@@H]2O[C@H](CO)[C@@H](O)[C@H](O)[C@H]2O)OC=C(C(=O)OC)[C@H]1CC(=O)c1[nH]c2ccccc2c1[C@H](OC)C(=O)NC | < 0.38 | > 548 | > 200 | 208 | < 1.04
